Measurements published in patent publication US8840866B2, “Styrylpyridine derivatives and their use for binding and imaging amyloid plaques” (The Trustees of the University of Pennsylvania, priority 2006, dated 2014).

Assay: Organ distribution in normal ICR mice after iv injection of radiolabeled tracer
Type: in vivo
Settings: [125I]-labeled tracer
Description: The mice (n=3 for each time point) were sacrificed by cervical dislocation at designated time-points post injection. The organs of interest were removed and weighed, and the radioactivity was counted with an automatic gamma counter. The percentage dose per organ was calculated by a comparison of the tissue counts to suitably diluted aliquots of the injected material. The total activity of the blood was calculated under the assumption that it is 7% of the total body weight. The % dose/g of samples was calculated by comparing the sample counts with the count of the diluted initial dose.

Row | SMILES | Biodistribution: Blood (2 min) | Biodistribution: Brain (2 min) | Biodistribution: Heart (2 min) | Biodistribution: Kidney (2 min) | Biodistribution: Liver (2 min) | Biodistribution: Lung (2 min) | Biodistribution: Muscle (2 min) | Biodistribution: Skin (2 min) | Biodistribution: Spleen (2 min) | Biodistribution: Thyroid (2 min) | Biodistribution: Blood (30 min) | Biodistribution: Brain (30 min) | Biodistribution: Heart (30 min) | Biodistribution: Kidney (30 min) | Biodistribution: Liver (30 min) | Biodistribution: Lung (30 min) | Biodistribution: Muscle (30 min) | Biodistribution: Skin (30 min) | Biodistribution: Spleen (30 min) | Biodistribution: Thyroid (30 min) | further results
1 | CN(C)c1ccc(/C=C/c2cnc(OCCOCCOCCF)c(I)c2)cc1 [[^125I]13a, (E)-(5-Iodo-6-{2-[2-(2-fluoroethoxy)ethoxy]ethoxy}pyridin-3-yl)-2-(4-dimethylaminophenyl)-ethylene] | 2.70 ± 0.58 % dose/g | 4.03 ± 0.43 % dose/g | 12.76 ± 1.24 % dose/g | 16.62 ± 1.96 % dose/g | 22.15 ± 4.34 % dose/g | 10.08 ± 2.15 % dose/g | 0.90 ± 0.20 % dose/g | 0.54 ± 0.05 % dose/g | 4.47 ± 1.28 % dose/g | 3.89 ± 0.67 % dose/g | 2.05 ± 0.18 % dose/g | 1.93 ± 0.18 % dose/g | 1.63 ± 0.03 % dose/g | 3.32 ± 0.11 % dose/g | 9.54 ± 1.30 % dose/g | 2.50 ± 0.14 % dose/g | 1.00 ± 0.08 % dose/g | 1.47 ± 0.26 % dose/g | 1.42 ± 0.05 % dose/g | 16.23 ± 11.75 % dose/g | Biodistribution: Blood (1 hr): 1.65 ± 0.45 % dose/g; Biodistribution: Brain (1 hr): 0.68 ± 0.17 % dose/g; Biodistribution: Heart (1 hr): 0.97 ± 0.16 % dose/g; Biodistribution: Kidney (1 hr): 2.30 ± 0.54 % dose/g; Biodistribution: Liver (1 hr): 5.34 ± 2.22 % dose/g; Biodistribution: Lung (1 hr): 1.62 ± 0.46 % dose/g; Biodistribution: Muscle (1 hr): 0.59 ± 0.13 % dose/g; Biodistribution: Skin (1 hr): 1.59 ± 0.68 % dose/g; Biodistribution: Spleen (1 hr): 0.99 ± 0.47 % dose/g; Biodistribution: Thyroid (1 hr): 24.19 ± 8.26 % dose/g; Biodistribution: Blood (2 hr): 1.45 ± 0.41 % dose/g; Biodistribution: Brain (2 hr): 0.26 ± 0.04 % dose/g; Biodistribution: Heart (2 hr): 0.73 ± 0.17 % dose/g; Biodistribution: Kidney (2 hr): 1.71 ± 0.24 % dose/g; Biodistribution: Liver (2 hr): 5.62 ± 1.31 % dose/g; Biodistribution: Lung (2 hr): 1.33 ± 0.39 % dose/g; Biodistribution: Muscle (2 hr): 0.53 ± 0.08 % dose/g; Biodistribution: Skin (2 hr): 1.23 ± 0.41 % dose/g; Biodistribution: Spleen (2 hr): 0.79 ± 0.27 % dose/g; Biodistribution: Thyroid (2 hr): 60.76 ± 6.09 % dose/g
2 | CNc1ccc(/C=C/c2cnc(OCCOCCOCCF)c(I)c2)cc1 [[^125I]13b, (E)-(5-Iodo-6-{2-[2-(2-fluoroethoxy)ethoxy]ethoxy}pyridin-3-yl)-2-(4-methylaminophenyl)-ethylene] | 4.37 ± 1.07 % dose/g | 6.22 ± 1.01 % dose/g | 9.85 ± 1.78 % dose/g | 9.03 ± 6.81 % dose/g | 26.24 ± 4.47 % dose/g | 6.85 ± 0.27 % dose/g | 1.04 ± 0.25 % dose/g | 1.48 ± 0.07 % dose/g | 4.41 ± 1.05 % dose/g | 5.74 ± 0.42 % dose/g | 3.83 ± 1.11 % dose/g | 1.23 ± 0.13 % dose/g | 2.54 ± 0.37 % dose/g | 3.40 ± 0.76 % dose/g | 11.47 ± 2.10 % dose/g | 3.01 ± 0.96 % dose/g | 1.11 ± 0.34 % dose/g | 2.95 ± 0.81 % dose/g | 2.49 ± 0.75 % dose/g | 24.09 ± 27.44 % dose/g | Biodistribution: Blood (1 hr): 2.88 ± 0.28 % dose/g; Biodistribution: Brain (1 hr): 0.62 ± 0.17 % dose/g; Biodistribution: Heart (1 hr): 1.75 ± 0.26 % dose/g; Biodistribution: Kidney (1 hr): 2.81 ± 0.70 % dose/g; Biodistribution: Liver (1 hr): 7.70 ± 1.22 % dose/g; Biodistribution: Lung (1 hr): 2.37 ± 0.29 % dose/g; Biodistribution: Muscle (1 hr): 0.85 ± 0.06 % dose/g; Biodistribution: Skin (1 hr): 2.46 ± 0.16 % dose/g; Biodistribution: Spleen (1 hr): 1.75 ± 0.33 % dose/g; Biodistribution: Thyroid (1 hr): 38.09 ± 6.37 % dose/g; Biodistribution: Blood (2 hr): 2.21 ± 0.73 % dose/g; Biodistribution: Brain (2 hr): 0.26 ± 0.01 % dose/g; Biodistribution: Heart (2 hr): 1.22 ± 0.28 % dose/g; Biodistribution: Kidney (2 hr): 1.86 ± 0.36 % dose/g; Biodistribution: Liver (2 hr): 6.25 ± 1.79 % dose/g; Biodistribution: Lung (2 hr): 1.85 ± 0.74 % dose/g; Biodistribution: Muscle (2 hr): 0.44 ± 0.19 % dose/g; Biodistribution: Skin (2 hr): 1.32 ± 0.41 % dose/g; Biodistribution: Spleen (2 hr): 1.27 ± 0.24 % dose/g; Biodistribution: Thyroid (2 hr): 215.05 ± 74.59 % dose/g
3 | CN(C)c1ccc(/C=C/c2cnc(OCCO)c(I)c2)cc1 [[^125I]16a, (E)-[5-Iodo-6-(2-hydroxyethoxy)pyridin-3-yl]-2-(4-dimethylaminophenyl)-ethylene] | 2.71 ± 0.07 % dose/g | 5.43 ± 0.85 % dose/g | 10.24 ± 0.45 % dose/g | 14.25 ± 1.98 % dose/g | 19.12 ± 2.68 % dose/g | 9.41 ± 0.56 % dose/g | 0.71 ± 0.46 % dose/g | 0.46 ± 0.13 % dose/g | 4.40 ± 1.89 % dose/g | 4.15 ± 0.43 % dose/g | 2.24 ± 0.38 % dose/g | 3.56 ± 0.32 % dose/g | 1.93 ± 0.27 % dose/g | 4.19 ± 0.45 % dose/g | 12.38 ± 1.29 % dose/g | 3.02 ± 0.38 % dose/g | 1.05 ± 0.20 % dose/g | 1.18 ± 0.26 % dose/g | 1.94 ± 0.19 % dose/g | 11.21 ± 7.88 % dose/g | Biodistribution: Blood (1 hr): 2.18 ± 0.66 % dose/g; Biodistribution: Brain (1 hr): 1.32 ± 0.00 % dose/g; Biodistribution: Heart (1 hr): 1.12 ± 0.02 % dose/g; Biodistribution: Kidney (1 hr): 2.49 ± 0.33 % dose/g; Biodistribution: Liver (1 hr): 6.22 ± 0.96 % dose/g; Biodistribution: Lung (1 hr): 1.98 ± 0.21 % dose/g; Biodistribution: Muscle (1 hr): 0.55 ± 0.03 % dose/g; Biodistribution: Skin (1 hr): 1.16 ± 0.00 % dose/g; Biodistribution: Spleen (1 hr): 1.32 ± 0.10 % dose/g; Biodistribution: Thyroid (1 hr): 59.13 ± 6.26 % dose/g; Biodistribution: Blood (2 hr): 1.01 ± 0.02 % dose/g; Biodistribution: Brain (2 hr): 0.46 ± 0.05 % dose/g; Biodistribution: Heart (2 hr): 0.62 ± 0.12 % dose/g; Biodistribution: Kidney (2 hr): 1.48 ± 0.20 % dose/g; Biodistribution: Liver (2 hr): 4.87 ± 0.46 % dose/g; Biodistribution: Lung (2 hr): 1.00 ± 0.15 % dose/g; Biodistribution: Muscle (2 hr): 0.22 ± 0.04 % dose/g; Biodistribution: Skin (2 hr): 0.40 ± 0.05 % dose/g; Biodistribution: Spleen (2 hr): 0.80 ± 0.11 % dose/g; Biodistribution: Thyroid (2 hr): 24.81 ± 0.62 % dose/g
4 | CNc1ccc(/C=C/c2cnc(OCCO)c(I)c2)cc1 [[^125I]16b, (E)-[5-Iodo-6-(2-hydroxyethoxy)pyridin-3-yl]-2-(4-methylaminophenyl)-ethylene] | 4.14 ± 0.41 % dose/g | 8.04 ± 0.82 % dose/g | 7.16 ± 1.16 % dose/g | 11.51 ± 1.48 % dose/g | 20.84 ± 2.38 % dose/g | 7.43 ± 1.21 % dose/g | 1.15 ± 0.38 % dose/g | 0.95 ± 0.09 % dose/g | 4.08 ± 0.68 % dose/g | 6.31 ± 1.59 % dose/g | 3.08 ± 0.35 % dose/g | 0.88 ± 0.30 % dose/g | 1.50 ± 0.18 % dose/g | 3.73 ± 0.75 % dose/g | 12.57 ± 3.03 % dose/g | 2.67 ± 0.46 % dose/g | 0.91 ± 0.06 % dose/g | 1.86 ± 0.50 % dose/g | 1.34 ± 0.29 % dose/g | 17.23 ± 14.23 % dose/g | Biodistribution: Blood (1 hr): 1.81 ± 0.56 % dose/g; Biodistribution: Brain (1 hr): 0.26 ± 0.03 % dose/g; Biodistribution: Heart (1 hr): 0.88 ± 0.30 % dose/g; Biodistribution: Kidney (1 hr): 2.16 ± 0.08 % dose/g; Biodistribution: Liver (1 hr): 5.62 ± 0.68 % dose/g; Biodistribution: Lung (1 hr): 1.76 ± 0.32 % dose/g; Biodistribution: Muscle (1 hr): 0.42 ± 0.08 % dose/g; Biodistribution: Skin (1 hr): 1.29 ± 0.51 % dose/g; Biodistribution: Spleen (1 hr): 0.87 ± 0.37 % dose/g; Biodistribution: Thyroid (1 hr): 36.69 ± 37.17 % dose/g; Biodistribution: Blood (2 hr): 1.96 ± 0.14 % dose/g; Biodistribution: Brain (2 hr): 0.15 ± 0.02 % dose/g; Biodistribution: Heart (2 hr): 0.76 ± 0.03 % dose/g; Biodistribution: Kidney (2 hr): 1.53 ± 0.20 % dose/g; Biodistribution: Liver (2 hr): 3.41 ± 0.20 % dose/g; Biodistribution: Lung (2 hr): 1.58 ± 0.10 % dose/g; Biodistribution: Muscle (2 hr): 0.38 ± 0.02 % dose/g; Biodistribution: Skin (2 hr): 1.43 ± 0.10 % dose/g; Biodistribution: Spleen (2 hr): 1.08 ± 0.15 % dose/g; Biodistribution: Thyroid (2 hr): 99.88 ± 69.45 % dose/g
